Two compounds from patent EP1649856A2, “Use of pimecrolimus for selective immunomodulation” (Novartis AG, priority 2001, dated 2002) can be followed below.

One data set can be described thus: in vivo. Also on record: species or system rats. The note with it: rat, skin; 2 oral doses of 25 mg/kg in an interval of 2 hours; 6 hours after the last dosing; read-out: skinlblood concentration ratio. The protocol:
In another study designed to explore the differences between pimecrolimus and FK506 and to determine whether these differences might be associated with a different tissue distribution, the exposure to pimecrolimus and FK506 in various organs after oral administration were measured. Animals received 2 oral doses of 25 mg/kg in an interval of 2 hours. […] Pimecrolimus was found consistently to have a higher skinlblood concentration ratio than FK506 (2 hours: 7.3 vs. 2.8; 6 hours: 13 vs. 1.6; 24 hours: 36 vs. 6.0). The AUC0-24h in skin calculated for pimecrolimus was twice as high as with FK506.
These distribution characteristics are relevant not only for oral, but also for topical application, as the compound enters systemic circulation after permeation through the skin.

The subject of data set [1] is SCID mice reconstituted with CD4^+CD45RB^HI T cells. Kind of data set: SCID-IBD mouse model, treatment from day 1 for 4 weeks. In kind it is in vivo. The settings on record: 3 and 10 mg/kg/day p.o., steroid-related. The source says: A well-established animal model for IBD exists (see Leach et al., Am. J. Pathol., Vol. 148, No. 5, pp. 1503-1515 (1996), and Powrie et al., Int. Immunol., Vol. 5, No. 11, pp. 1461-1471 (1993)). It is known that the transfer of syngeneic, naive T lymphocytes (CD4^+CD45RB^HI) into SCID mice results in a severe colitis and wasting disease, SCID-IBD. Histopathologically, features of both CD and UC are represented in this model which has been used throughout the 1990s to bring the understanding of the pathoetiology of this disease of immune dysregulation in man to its present status. There is no other animal model of IBD which is considered relevant for the human disease, both in mechanism and in validity of clinical treatment.
In this study, SCID mice reconstituted with CD4^+CD45RB^HI T lymphocytes were used. These mice are known to develop chronic colitis with characteristics similar to human IBD, as described above.
In this study, SCID mice were reconstituted with 2 x 10^5 CD4^+CD45RB^HI T cells and then treated with pimecrolimus (30, 60 and 100 mg/kg/day) or vehicle daily p.o. for 4 weeks. […] BW was monitored throughout. On termination, blood was withdrawn, spleen, mesenteric lymph nodes (MLN) and colon were removed. Serum haptoglobin levels were measured (ELISA), colitis was assessed histologically and lymphocyte and neutrophil numbers were calculated from FACS analysis of blood, spleen and MLN cell suspensions.
In order to determine the efficacy of ASM981 treatment in preventing intestinal mucosal damage in SCID-IBD mice, a histological examination of the colon sections was performed according to defined morphological parameters. All colon sections were assessed according to a scheme awarding degrees of severity governed by the extent of cell infiltration and inflammation with a score of 8 being the maximum.

As for `C=CC[C@@H]1/C=C(\C)C[C@H](C)C[C@H](OC)[C@H]2O[C@@](O)(C(=O)C(=O)N3CCCC[C@H]3C(=O)O[C@H](/C(C)=C/[C@@H]3CC[C@@H](O)[C@H](OC)C3)[C@H](C)[C@@H](O)CC1=O)[C@H](C)C[C@@H]2OC` [FK506, tacrolimus, reference compound], the Kp at 6 h in the data set “in vivo” came to 1.6. For the compound `C[C@@H]1C[C@H]2[C@@H]3CCC4=CC(=O)C=C[C@]4(C)[C@@]3(F)[C@@H](O)C[C@]2(C)[C@@]1(O)C(=O)CO` [Dexamethasone, reference compound], the “effect on BW” value in data set [1] is “accelerated loss in BW”.
